# Measurements taken from ChEMBL document CHEMBL1138490, “Gamma-aminobutyric acid amides of nortriptyline and fluoxetine display improved pain suppressing activity” (2009).
# Active and inactive are the calls of the source. No cut-off for these calls is given here.
# Columns and labels:
# Mus musculus [1] = assay: Anxiolytic activity in BALB/c mouse assessed as velocity at equimolar oral dose relative to 1 mg/kg nortriptyline after 90 mins by open-field test (RVb= 7.07+/-0.51 cm/s); type: functional
# Mus musculus [2] = assay: Antinociceptive activity in BALB/c mouse assessed as increase in paw withdrawal latency time at 0.2 mg/kg, po equimolar dose of nortriptyline daily measured after 3 to 5 hrs on day 10 to 12; type: functional, organism-based; parameters: dose 0.2 mg/kg
# Mus musculus [3] = assay: Antinociceptive activity in BALB/c mouse assessed as decrease in inhibition of paw withdrawal latency at 0.1 mg/kg, po after by hot plate method; type: functional, organism-based; parameters: dose 0.1 mg/kg
# Mus musculus [4] = assay: Antinociceptive activity in BALB/c mouse assessed as decrease in inhibition of paw withdrawal latency at 2.39 mg/kg, po after by hot plate method; type: functional, organism-based; parameters: dose 2.39 mg/kg
# Mus musculus [5] = assay: Antinociceptive activity against formalin-induced pain in BALB/c mouse assessed paw licking, biting or shaking at 0.5 mg/kg, po administered 2 hrs before formalin challenge measured after 0 to 5 mins relative to control; type: functional, organism-based; parameters: dose 0.5 mg/kg
# Mus musculus [6] = assay: Antinociceptive activity against formalin-induced pain in BALB/c mouse assessed paw licking, biting or shaking at 0.5 mg/kg, po administered 2 hrs before formalin challenge measured after 25 to 35 mins relative to control; type: functional, organism-based; parameters: dose 0.5 mg/kg
# Mus musculus [7] = assay: Antinociceptive activity against formalin-induced pain in BALB/c mouse assessed paw licking, biting or shaking at 5 mg/kg, po administered 2 hrs before formalin challenge measured after 0 to 5 mins relative to control; type: functional, organism-based; parameters: dose 5 mg/kg
# Mus musculus [8] = assay: Antinociceptive activity against formalin-induced pain in BALB/c mouse assessed paw licking, biting or shaking at 5 mg/kg, po administered 2 hrs before formalin challenge measured after 25 to 35 mins relative to control; type: functional, organism-based; parameters: dose 5 mg/kg
# Mus musculus [9] = assay: Antinociceptive activity against formalin-induced pain in BALB/c mouse assessed paw licking, biting or shaking at 0.5 mg/kg, po equimolar dose of nortriptyline administered 2 hrs before formalin challenge measured after 0 to 5 mins relative to control; type: functional, organism-based; parameters: dose 0.5 mg/kg
# Mus musculus [10] = assay: Antinociceptive activity against formalin-induced pain in BALB/c mouse assessed paw licking, biting or shaking at 0.5 mg/kg, po equimolar dose of nortriptyline administered 2 hrs before formalin challenge measured after 25 to 35 mins relative to control; type: functional, organism-based; parameters: dose 0.5 mg/kg
# Mus musculus [11] = assay: Antinociceptive activity against formalin-induced pain in BALB/c mouse assessed paw licking, biting or shaking at 5 mg/kg, po equimolar dose of nortriptyline administered 2 hrs before formalin challenge measured after 0 to 5 mins relative to control; type: functional, organism-based; parameters: dose 5 mg/kg
# Mus musculus [12] = assay: Antinociceptive activity against formalin-induced pain in BALB/c mouse assessed paw licking, biting or shaking at 5 mg/kg, po equimolar dose of nortriptyline administered 2 hrs before formalin challenge measured after 25 to 35 mins relative to control; type: functional, organism-based; parameters: dose 5 mg/kg
# Mus musculus [13] = assay: Anxiolytic activity in BALB/c mouse assessed as immobility at equimolar oral dose relative to 1 mg/kg nortriptyline after 90 mins by open-field test (RVb= 458.4+/-41 s); type: functional
# Mus musculus [14] = assay: Anxiolytic activity in BALB/c mouse assessed as immobility at equimolar oral dose relative to 5 mg/kg nortriptyline after 90 mins by open-field test (RVb= 458.4+/-41 s); type: functional
# Mus musculus [15] = assay: Anxiolytic activity in BALB/c mouse assessed as immobility at equimolar oral dose relative to 15 mg/kg nortriptyline after 90 mins by open-field test (RVb= 458.4+/-41 s); type: functional
# Mus musculus [16] = assay: Antiinflammatory activity against formalin-induced BALB/c mouse skin assessed as reduction in TNFalpha level at to 0.5 mg/kg, po; type: functional, organism-based; parameters: dose 0.5 mg/kg
# Rattus norvegicus [17] = assay: Antiinflammatory activity against gamma carrageenan-induced paw edema in Wistar rat assessed as reduction in paw volume at 5 mg/kg, po administered 2 hrs before carrageenan challenge measured after 4 hrs relative to control; type: functional, organism-based; parameters: dose 5 mg/kg
# Rattus norvegicus [18] = assay: Antiinflammatory activity against gamma carrageenan-induced paw edema in Wistar rat assessed as reduction in paw volume at 5 mg/kg, po equimolar dose of nortriptyline administered 2 hrs before carrageenan challenge measured after 4 hrs relative to control; type: functional, organism-based; parameters: dose 5 mg/kg
# Rattus norvegicus [19] = assay: Antiinflammatory activity against gamma carrageenan-induced paw edema in Wistar rat assessed as reduction in paw volume at 5 mg/kg, po administered 2 hrs before carrageenan challenge measured after 24 hrs relative to control; type: functional, organism-based; parameters: dose 5 mg/kg
# Rattus norvegicus [20] = assay: Antiinflammatory activity against gamma carrageenan-induced paw edema in Wistar rat assessed as reduction in paw volume at 5 mg/kg, po equimolar dose of nortriptyline administered 2 hrs before carrageenan challenge measured after 24 hrs relative; type: functional, organism-based; parameters: dose 5 mg/kg
# Rattus norvegicus [21] = assay: Antiinflammatory activity against gamma carrageenan-induced paw edema in Wistar rat assessed as paw volume at 5 mg/kg, po equimolar dose of nortriptyline administered 2 hrs before carrageenan challenge relative to control; type: functional, organism-based; parameters: dose 5 mg/kg
# Rattus norvegicus [22] = species on record: Rattus norvegicus; assay: Displacement of [3H]muscimol from GABAA receptor in rat cerebral cortex; type: tissue-based; conditions: concentration not given here
# Rattus norvegicus [23] = species on record: Rattus norvegicus; assay: Displacement of [3H]GABA from non selective GABA receptor in rat cerebral cortex; type: tissue-based; conditions: concentration not given here
# Mus musculus [24] = assay: Anxiolytic activity in BALB/c mouse assessed as distance moved at equimolar oral dose relative to 5 mg/kg nortriptyline after 90 mins by open-field test (RVb= 8485+/-610 cm); type: functional
# Mus musculus [25] = assay: Anxiolytic activity in BALB/c mouse assessed as distance moved at equimolar oral dose relative to 1 mg/kg nortriptyline after 90 mins by open-field test (RVb= 8485+/-610 cm); type: functional
# Mus musculus [26] = assay: Anxiolytic activity in BALB/c mouse assessed as distance moved at equimolar oral dose relative to 15 mg/kg nortriptyline after 90 mins by open-field test (RVb= 8485+/-610 cm); type: functional
# Mus musculus [27] = assay: Anxiolytic activity in BALB/c mouse assessed as velocity at equimolar oral dose relative to 5 mg/kg nortriptyline after 90 mins by open-field test (RVb= 7.07+/-0.51 cm/s); type: functional
# Mus musculus [28] = assay: Anxiolytic activity in BALB/c mouse assessed as velocity at equimolar oral dose relative to 15 mg/kg nortriptyline after 90 mins by open-field test (RVb= 7.07+/-0.51 cm/s); type: functional
# Mus musculus [29] = assay: Antinociceptive activity in BALB/c mouse assessed as […] at 0.25 mg/kg, po after 240 mins by hot plate method; type: functional, organism-based; parameters: dose 0.25 mg/kg
# Mus musculus [30] = assay: Antinociceptive activity in BALB/c mouse assessed as […] at 4.5 mg/kg, po after 240 mins by hot plate method; type: functional, organism-based; parameters: dose 4.5 mg/kg
# Mus musculus [31] = assay: Antinociceptive activity in BALB/c mouse assessed as […] at 0.5 mg/kg, po equimolar dose of nortriptyline after 240 mins by hot plate method; type: functional, organism-based; parameters: dose 0.5 mg/kg
# Mus musculus [32] = assay: Antinociceptive activity in BALB/c mouse assessed as […] at 0.25 mg/kg, po equimolar dose of nortriptyline after 240 mins by hot plate method; type: functional, organism-based; parameters: dose 0.25 mg/kg
# Mus musculus [33] = assay: Antinociceptive activity in BALB/c mouse assessed as […] at 4.5 mg/kg, po equimolar dose of nortriptyline after 240 mins by hot plate method; type: functional, organism-based; parameters: dose 4.5 mg/kg
# Mus musculus [34] = assay: Antinociceptive activity in BALB/c mouse assessed as […] at 10 mg/kg, po after 240 mins by hot plate method; type: functional, organism-based; parameters: dose 10 mg/kg
# Mus musculus [35] = assay: Antinociceptive activity in BALB/c mouse assessed as paw withdrawal latency at 0.4 mg/kg, po after 2 to 4 hrs by hot plate method; type: functional, organism-based; parameters: dose 0.4 mg/kg
# Mus musculus [36] = assay: Antinociceptive activity in BALB/c mouse assessed as paw withdrawal latency at 0.4 mg/kg, po equimolar dose of nortriptyline after 2 to 4 hrs by hot plate method; type: functional, organism-based; parameters: dose 0.4 mg/kg
# Mus musculus [37] = assay: Antinociceptive activity in BALB/c mouse assessed as increase in paw withdrawal latency time at 0.2 mg/kg, po daily for 12 days measured after 3 to 5 hrs on day 1; type: functional, organism-based; parameters: dose 0.2 mg/kg
# Mus musculus [38] = assay: Antinociceptive activity in BALB/c mouse assessed as increase in paw withdrawal latency time at 0.2 mg/kg, po equimolar dose of nortriptyline daily measured after 3 to 5 hrs on day 1; type: functional, organism-based; parameters: dose 0.2 mg/kg
# Mus musculus [39] = assay: Antinociceptive activity in BALB/c mouse assessed as increase in paw withdrawal latency time at 0.2 mg/kg, po equimolar dose of nortriptyline daily measured after 3 to 5 hrs on day 3 to 12; type: functional, organism-based; parameters: dose 0.2 mg/kg
# Mus musculus [40] = assay: Antiinflammatory activity against formalin-induced BALB/c mouse skin assessed as reduction in TNFalpha level at 50 mg/kg, ip; type: functional, organism-based; parameters: dose 50 mg/kg
# Rattus norvegicus [41] = assay: Antiinflammatory activity against gamma carrageenan-induced paw edema in Wistar rat assessed as reduction in paw volume at 50 mg/kg, ip administered 2 hrs before carrageenan challenge measured after 4 hrs relative to control; type: functional, organism-based; parameters: dose 50 mg/kg
# Rattus norvegicus [42] = assay: Antiinflammatory activity against gamma carrageenan-induced paw edema in Wistar rat assessed as reduction in paw volume at 50 mg/kg, ip administered 2 hrs before carrageenan challenge measured after 24 hrs relative to control; type: functional, organism-based; parameters: dose 50 mg/kg
# Rattus norvegicus [43] = assay: Antiinflammatory activity against gamma carrageenan-induced paw edema in Wistar rat assessed as paw volume at 50 mg/kg, ip administered 2 to 4 hrs before carrageenan challenge relative to control; type: functional, organism-based; parameters: dose 50 mg/kg
smiles,measurement,setting,value
CN(CCC=C1c2ccccc2CCc2ccccc21)C(=O)CCCN.Cl [BL-1021],Activity,Mus musculus [1],6.72 cm/s
same,Activity,Mus musculus [2],Active
same,Activity,Mus musculus [3],Active
same,Activity,Mus musculus [4],Active
same,Activity,Mus musculus [5],Active
same,Activity,Mus musculus [6],Active
same,Activity,Mus musculus [7],Active
same,Activity,Mus musculus [8],Active
same,Activity,Mus musculus [9],Active
same,Activity,Mus musculus [10],Active
same,Activity,Mus musculus [11],Active
same,Activity,Mus musculus [12],Active
same,Activity,Mus musculus [13],447.2 s
same,Activity,Mus musculus [14],467.9 s
same,Activity,Mus musculus [15],572.8 s
same,Activity,Mus musculus [16],Active
same,Activity,Rattus norvegicus [17],inactive
same,Activity,Rattus norvegicus [18],inactive
same,Activity,Rattus norvegicus [19],inactive
same,Activity,Rattus norvegicus [20],inactive
same,Activity,Rattus norvegicus [21],Active
same,inhibition,Rattus norvegicus [22],11%
same,inhibition,Rattus norvegicus [23],6%
same,Activity,Mus musculus [24],8157 cm
same,Activity,Mus musculus [25],8053 cm
same,Activity,Mus musculus [26],7413 cm
same,Activity,Mus musculus [27],6.85 cm/s
same,Activity,Mus musculus [28],6.18 cm/s
same,Activity,Mus musculus [29],Active
same,Activity,Mus musculus [30],Active
same,Activity,Mus musculus [31],Active
same,Activity,Mus musculus [32],Active
same,Activity,Mus musculus [33],Active
same,Activity,Mus musculus [34],Active
same,Activity,Mus musculus [35],Active
same,Activity,Mus musculus [36],Active
same,Activity,Mus musculus [37],Active
same,Activity,Mus musculus [38],Active
same,Activity,Mus musculus [39],Active
NCC1(CC(=O)O)CCCCC1,Activity,Mus musculus [16],Active
same,Activity,Mus musculus [40],Active
same,Activity,Rattus norvegicus [41],inactive
same,Activity,Rattus norvegicus [42],inactive
same,Activity,Rattus norvegicus [43],Active
